Measured values published in patent US11866695B2, “Methods and systems and related compositions for mixtures separation with a solid matrix” (CALIFORNIA INSTITUTE OF TECHNOLOGY, priority 2019, dated 2024).
Read-outs that look alike come from different tables or passages of the source.

How the values were obtained:
[1] = cited from earlier work
[2] = test system: qPCR spiked with 5×104 copies λ phage DNA; type: biochemical; details: 1 μL candidate in 11 μL total; for Avg Cq: N.D. = not detected within 40 cycles; for ΔCq: minus the No additive control
Method: Heating and real-time imaging were performed on the Bio-Rad CFX-96 Touch Real-Time PCR Detection System by heating to 95° C. for 5 min, cycling 40 times between 95° C. for 15 s, 60° C. for 15 s, and 72° C. for 20 s, and taking a melt-curve analysis. For the E. coli DNA dilution experiment, qPCR was run for 60 cycles. Fluorescence readings were taken at the end of each extension step. Quantification cycle (Cq) was determined when the software's automated baseline corrected fluorescence reached 200 RFU.
Criterion 1a was investigated directly by performing qPCR and LAMP reactions. Reactions were spiked with λ phage DNA, diluted up to 10 μL, and an additional 1 μL of different wash buffer candidates was added to a total of 11 μL. […] As an experimental control, a “No Additive” condition was tested, which was a 10 μL reaction with optimized reaction conditions and no inhibitors. To control for the effects of a 1 μL dilution on the reaction, a “Water” condition which was an 11 μL reaction with no inhibitors was also tested.

λ phage DNA = experiment: Zymo Quick-Viral DNA/RNA kit extraction with additional TPW, LAMP with 2× diluted eluent; type: biochemical
Method: LAMP reactions contained the following concentrations of reagents: 1× Isothermal Amplification Buffer (20 mM Tris-HCl pH 8.8, 10 mM (NH4)2SO4, 50 mM KCl, 5 mM MgSO4, 0.1% Tween-20, B0537S, NEB, Ipswich, Mass., USA), an additional 2 mM MgSO4 (B1003S, NEB), 1.4 mM deoxynucleotide mix (N0447L or N0446S, NEB), […] Invitrogen Syto-9 (S34854, Thermo Fisher Scientific), […] Invitrogen bovine serum albumin (15561020, Thermo Fisher Scientific), 320 U/mL WarmStart Bst 2.0 (M0538L, NEB), and were supplemented with nuclease-free water (not DEPC-Treated, 4387936, Thermo Fisher Scientific) up to 10 μL. LAMP primers (Integrated DNA Technologies (IDT), Coralville, Iowa, USA) were designed, ordered, and added at NEB's recommended concentrations of […] FIP/BIP, 0.2μM F3/B3, and […] LoopF/B.
Each 96-well plate was sealed and briefly spun. Heating and real-time imaging were performed on the Bio-Rad CFX-96 Touch Real-Time PCR Detection System (1855195, Bio-Rad). Each 96-well plate was cooled to 12° C. for 2 min, held at 68° C. for 47 min with 35-second fluorescence read intervals, and a melt-curve analysis was performed. For the E. coli DNA dilution experiment, the 68° C. step was held for 105 min. Time-to-positive (TTP) was determined when the software's automated baseline corrected fluorescence reached 1000 RFU.
Three different silica-column kits were tested, including: Zymo ZR Viral DNA/RNA Kit (outdated protocol, D7021), Zymo Quick-DNA/RNA Kit (updated protocol, D7021), and the QIAquick PCR Purification Kit (28104, Qiagen). For all silica-column kits, fresh collection tubes were used after each spin and centrifugation speeds were set to 16,000×g. Centrifugation was performed on either an Eppendorf 5415D centrifuge (Eppendorf, Hauppauge, N.Y., USA) or a Thermo Fisher Scientific AccuSpin Micro 17R centrifuge (13-100-676). It was noted that the QIAquick protocol calls for 17,900×g, but instead was run at 16,000×g which was the max speed for the Eppendorf 5415D. […]

Compound	Solubility of TPW Candidate in water ([1]; in words)	Solubility of water in TPW Candidate ([1]; in words)	Avg Cq [2] [cycles]	ΔCq [2] [cycles]	Solubility of TPW Candidate in water [1] [g/100 mL]	Solubility of water in TPW Candidate [1] [g/100 g]	reduction in TTP vs manufacturer protocol (λ phage DNA; 2× eluent dilution) [min]	TTP (λ phage DNA; 2× eluent dilution, 3 columns) [min]	TTP (λ phage DNA; all 27 wells) [min]
CCO [Ethanol, ethanol]	Miscible	Miscible	25.30	5.21	–	–	–	–	–
CCCCCCCCCCCO [1-undecanol]	–	–	19.67	−0.42	0.0015	3.4	0.78	6.00 ± 0.04	10.23 ± 0.06
